Experimental data as given in PubChem BioAssay AID248 (DTP/NCI, 2004).
Toxic doses and inconclusive results are not listed. Cut-off read from the data, not from the text of the source: active = T/C of 150% or more; inactive = T/C below 125%.

System: L1210 leukemia ip in BDF1 mice, survival T/C
Assay: NCI In Vivo Anticancer Drug Screen. Data for tumor model L1210 Leukemia (intraperitoneal) in B6D2F1 (BDF1) mice
Conditions: endpoint: mean survival time, higher = longer survival
Procedure, shortened: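 Each compound was tested against a transplantable tumor grown in mice. The endpoint was survival, with treated animals benchmarked against vehicle controls as a simple ratio.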

[1] = dose: 12.5 mg/kg/injection, schedule: Q01DX009 (ip), vehicle: Klucel (hydroxypropylcellulose) (HPC)
[2] = dose: 25.0 mg/kg/injection, schedule: Q01DX009 (ip), vehicle: Klucel (hydroxypropylcellulose) (HPC)
[3] = dose: 50.0 mg/kg/injection, schedule: Q01DX009 (ip), vehicle: Klucel (hydroxypropylcellulose) (HPC)
[4] = dose: 100.0 mg/kg/injection, schedule: Q01DX001 (ip), vehicle: Klucel (hydroxypropylcellulose) (HPC)
[5] = dose: 100.0 mg/kg/injection, schedule: Q01DX009 (ip), vehicle: Klucel (hydroxypropylcellulose) (HPC)
[6] = dose: 200.0 mg/kg/injection, schedule: Q01DX001 (ip), vehicle: Klucel (hydroxypropylcellulose) (HPC)
[7] = dose: 200.0 mg/kg/injection, schedule: Q01DX009 (ip), vehicle: Klucel (hydroxypropylcellulose) (HPC)
[8] = dose: 400.0 mg/kg/injection, schedule: Q01DX001 (ip), vehicle: Klucel (hydroxypropylcellulose) (HPC)
[9] = dose: 100.0 mg/kg/injection, schedule: Q01DX001 (ip), vehicle: saline with Tween-80
[10] = dose: 200.0 mg/kg/injection, schedule: Q01DX001 (ip), vehicle: saline with Tween-80
[11] = dose: 100.0 mg/kg/injection, schedule: Q04DX003 (ip), vehicle: Klucel (hydroxypropylcellulose) (HPC)
[12] = dose: 200.0 mg/kg/injection, schedule: Q04DX003 (ip), vehicle: Klucel (hydroxypropylcellulose) (HPC)
[13] = dose: 400.0 mg/kg/injection, schedule: Q04DX003 (ip), vehicle: Klucel (hydroxypropylcellulose) (HPC)
[14] = dose: 400.0 mg/kg/injection, schedule: Q01DX009 (ip), vehicle: Klucel (hydroxypropylcellulose) (HPC)

Measured: T/C

O=C1C(=Cc2ccc([N+](=O)[O-])cc2)C(=O)c2ccccc21
inactive: [1] 93 % of control | dose: 12.5 mg/kg/injection, schedule: Q04DX003 (ip), vehicle: Klucel (hydroxypropylcellulose) (HPC) 97 % of control | [2] 88 % of control | dose: 25.0 mg/kg/injection, schedule: Q04DX003 (ip), vehicle: Klucel (hydroxypropylcellulose) (HPC) 90 % of control | [3] 98 % of control | dose: 50.0 mg/kg/injection, schedule: Q04DX003 (ip), vehicle: Klucel (hydroxypropylcellulose) (HPC) 93 % of control

O=Cc1cc(C(=O)c2ccccn2)c2cc(Cl)cc(Cl)c2n1
inactive: [4] 94 % of control | [5] 107 % of control | [6] 89 % of control | [7] 96 % of control | [8] 94 % of control

Cn1/c(=N/N=C(N)N)ccc2ccccc21
inactive: dose: 15.0 mg/kg/injection, schedule: Q01DX Z (ip), vehicle: methylcellulose (MC) 100 % of control | dose: 30.0 mg/kg/injection, schedule: Q01DX Z (ip), vehicle: methylcellulose (MC) 108 % of control | dose: 30.0 mg/kg/injection, schedule: Q01DX Z (oral), vehicle: methylcellulose (MC) 95 % of control | dose: 60.0 mg/kg/injection, schedule: Q01DX Z (ip), vehicle: methylcellulose (MC) 107 % of control | dose: 60.0 mg/kg/injection, schedule: Q01DX Z (oral), vehicle: methylcellulose (MC) 101 % of control | dose: 120.0 mg/kg/injection, schedule: Q01DX Z (ip), vehicle: methylcellulose (MC) 103 % of control | dose: 120.0 mg/kg/injection, schedule: Q01DX Z (oral), vehicle: methylcellulose (MC) 97 % of control | dose: 240.0 mg/kg/injection, schedule: Q01DX Z (ip), vehicle: methylcellulose (MC) 98 % of control | dose: 240.0 mg/kg/injection, schedule: Q01DX Z (oral), vehicle: methylcellulose (MC) 95 % of control | dose: 375.0 mg/kg/injection, schedule: Q01DX Z (oral), vehicle: methylcellulose (MC) 95 % of control

CCCCC(CC)C(=O)[O][Ge]([CH2]CCC)([CH2]CCC)[O]C(=O)C(CC)CCCC (stereo not given)
inactive: [9] 101 % of control | [10] 100 % of control | dose: 400.0 mg/kg/injection, schedule: Q01DX001 (ip), vehicle: saline with Tween-80 100 % of control

CC1CN=C(c2ccc(NC(=O)Nc3ccc(C4=NCCN4)cc3)cc2)N1 (stereo not given)
inactive: dose: 1.88 mg/kg/injection, schedule: Q01DX Z (ip), vehicle: saline 112 % of control | dose: 3.75 mg/kg/injection, schedule: Q01DX Z (ip), vehicle: saline 113 % of control

Cc1ccc(S(=O)(=O)N(c2ccccc2)C(C)C(=O)c2ccccc2)cc1 (stereo not given)
inactive: dose: 100.0 mg/kg/injection, schedule: Q01DX001 (ip), vehicle: other 104 % of control | dose: 200.0 mg/kg/injection, schedule: Q01DX001 (ip), vehicle: other 92 % of control | dose: 400.0 mg/kg/injection, schedule: Q01DX001 (ip), vehicle: other 95 % of control

Cc1c(C)c2c(c(C)c1O)SC(CC(=O)O)C(=O)O2 (stereo not given)
inactive: [11] 100 % of control | [12] 100 % of control | [13] 100 % of control

OC(CN1CCOCC1)c1ccccc1 (stereo not given)
inactive: [5] 94 % of control | [11] 98 % of control | [7] 95 % of control | [12] 102 % of control

CCCCCCCCCCCCCCCCCC(=O)N/N=C/c1cccc([N+](=O)[O-])c1
inactive: [5] 94 % of control | [7] 96 % of control | [14] 88 % of control

O=NN(CC(=O)O)c1cccnc1
inactive: [2] 98 % of control | [3] 101 % of control | [5] 107 % of control

NC(Cc1c[nH]c2ccccc12)C(=O)O (stereo not given)
inactive: [9] 95 % of control | dose: 100.0 mg/kg/injection, schedule: Q01DX009 (ip), vehicle: saline 100 % of control | [10] 98 % of control | dose: 200.0 mg/kg/injection, schedule: Q01DX009 (ip), vehicle: saline 94 % of control | dose: 300.0 mg/kg/injection, schedule: Q01DX001 (ip), vehicle: saline with Tween-80 92 % of control | dose: 400.0 mg/kg/injection, schedule: Q01DX009 (ip), vehicle: saline 94 % of control | dose: 800.0 mg/kg/injection, schedule: Q01DX009 (ip), vehicle: saline 94 % of control

C=CCn1c(SCc2ccccc2)nccc1=O
inactive: dose: 100.0 mg/kg/injection, schedule: Q04DX002 (ip), vehicle: Klucel (hydroxypropylcellulose) (HPC) 111 % of control | dose: 200.0 mg/kg/injection, schedule: Q04DX002 (ip), vehicle: Klucel (hydroxypropylcellulose) (HPC) 122 % of control | dose: 400.0 mg/kg/injection, schedule: Q04DX002 (ip), vehicle: Klucel (hydroxypropylcellulose) (HPC) 108 % of control

CCOC(=O)C(Cc1ccc(Cl)c(Cl)c1)(Cc1ccc(Cl)c(Cl)c1)C(=O)OCC
inactive: dose: 100.0 mg/kg/injection, schedule: Q01DX009 (ip), vehicle: saline with Tween-80 104 % of control | dose: 100.0 mg/kg/injection, schedule: Q04DX003 (ip), vehicle: saline with Tween-80 88 % of control | dose: 200.0 mg/kg/injection, schedule: Q01DX009 (ip), vehicle: saline with Tween-80 97 % of control | dose: 200.0 mg/kg/injection, schedule: Q04DX003 (ip), vehicle: saline with Tween-80 89 % of control | dose: 400.0 mg/kg/injection, schedule: Q01DX009 (ip), vehicle: saline with Tween-80 95 % of control | dose: 400.0 mg/kg/injection, schedule: Q04DX003 (ip), vehicle: saline with Tween-80 105 % of control

CNc1cc(C(C)C)ccc1C
inactive: [1] 102 % of control | [2] 96 % of control | [3] 113 % of control | dose: 100.0 mg/kg/injection, schedule: Q01DX009 (sc), vehicle: olive oil, sesame oil, peanut oil 114 % of control | dose: 100.0 mg/kg/injection, schedule: Q04DX003 (sc), vehicle: olive oil, sesame oil, peanut oil 108 % of control | dose: 200.0 mg/kg/injection, schedule: Q01DX009 (sc), vehicle: olive oil, sesame oil, peanut oil 105 % of control | dose: 200.0 mg/kg/injection, schedule: Q04DX003 (sc), vehicle: olive oil, sesame oil, peanut oil 105 % of control | dose: 400.0 mg/kg/injection, schedule: Q01DX009 (sc), vehicle: olive oil, sesame oil, peanut oil 110 % of control | dose: 400.0 mg/kg/injection, schedule: Q04DX003 (sc), vehicle: olive oil, sesame oil, peanut oil 103 % of control

CCCCCCCCCCCCCSCCCCCCCCCCCCSCCCCCCCCCCCC
inactive: [4] 89 % of control | [6] 88 % of control | [8] 89 % of control

O=C(COc1ccc(Cl)cc1)Nc1ccccc1F
inactive: [5] 88 % of control | [11] 95 % of control | [7] 89 % of control | [12] 88 % of control | [14] 91 % of control | [13] 90 % of control

Cc1cccc(C2=N/C(=C\c3ccccc3)C(=O)O2)c1
inactive: dose: 100.0 mg/kg/injection, schedule: Q04DX002 (ip), vehicle: saline with Tween-80 95 % of control | dose: 200.0 mg/kg/injection, schedule: Q04DX002 (ip), vehicle: saline with Tween-80 89 % of control | dose: 400.0 mg/kg/injection, schedule: Q04DX002 (ip), vehicle: saline with Tween-80 89 % of control

CCOC(CNC(=O)c1cccc([N+](=O)[O-])c1)OCC
inactive: [3] 87 % of control | [5] 98 % of control | [7] 102 % of control

C[C@]12CCC(=O)C=C1CC[C@@H]1[C@@H]2[C@@H](O)C[C@@]2(C)[C@H]1CC[C@]2(O)C(=O)CF
inactive: dose: 50.0 mg/kg/injection, schedule: Q01DX Z (sc), vehicle: steriod suspending solution 106 % of control | dose: 250.0 mg/kg/injection, schedule: Q01DX Z (sc), vehicle: steriod suspending solution 104 % of control | dose: 500.0 mg/kg/injection, schedule: Q01DX Z (sc), vehicle: steriod suspending solution 107 % of control

COc1ccc(Cc2c3cc(OC)c(OC)cc3cc[n+]2Cc2ccc(N(CCCl)CCCl)cc2)cc1OC
inactive: dose: 75.0 mg/kg/injection, schedule: Q01DX001 (ip), vehicle: carboxymethylcellulose (CMC) 100 % of control | dose: 150.0 mg/kg/injection, schedule: Q01DX001 (ip), vehicle: carboxymethylcellulose (CMC) 94 % of control

[O-][n+]1ccccc1CCO
inactive: dose: 100.0 mg/kg/injection, schedule: Q04DX002 (ip), vehicle: saline 98 % of control | dose: 200.0 mg/kg/injection, schedule: Q04DX002 (ip), vehicle: saline 106 % of control | dose: 400.0 mg/kg/injection, schedule: Q04DX002 (ip), vehicle: saline 92 % of control
